Measurements taken from patent US20230044257A1, “COMPOSITIONS AND METHODS FOR ENHANCED UPTAKE OF ACTIVE INGREDIENTS FOR ANIMAL HEALTH AND NUTRITION” (AgroSpheres, Inc., priority 2019, published 2023).

Assays:
[1] = Encapsulation (loading) efficacy of essential oils / active ingredients into AgriCell; format: physicochemical
Protocol: After AgriCells are purified, the concentrated AgriCell paste or dry lyophilized powder is loaded with EOs. If dry, the AgriCells are first homogenized into a finer powder through mechanical homogenization. A stock solution from each EO is prepared in ethanol at 100 mg/mL-200 mg/mL. Lyophilized AgriCells would then be suspended in a solution with the EO solution at a ratio of 1 g of dry AgriCells to 10 mL of EO solution. Once resuspended, the ethanol is allowed to evaporate overnight, leaving behind EO encapsulated AgriCells in the process. After this overnight period, encapsulated AgriCells are removed from the beaker, and the EO-encapsulated AgriCell powder is mechanically homogenized. This encapsulated product is ready for resuspension in its appropriate medium. Loading efficacy was measured and/or calculated as percentage of EO loaded into AgriCell after extraction with ethanol 100% v/v and quantification by UV-Vis spectroscopy. Eugenol and thymol were quantified at 280 nm, whereas pyrethrum was quantified at 230 nm against its respective calibration standard curve. Also, Genistein was quantified at […], whereas eugenol was quantified at 280 nm against its respective calibration standard curve.

[2] = system: E. coli strain ATCC 8739; assay: Bacterial agglutination (transmittance at 450 nm); format: cell-based; details: 300 μg/mL
Protocol: E. coli strain ATCC 8739 (which causes disease outside of the intestinal tract and its highly virulent in chickens) from a frozen stock was cultured in tryptose broth (10 g of tryptose, 2.5 g of sodium chloride, 0.5 g of dextrose, and 0.0025 g of thiamin hydrochloride in 500 mL of deionized water) at 37° C. for 48 hours. After incubation, 1 mL of E. coli cultures were taken from the surface of the broth and used to inoculate new broths that were incubated at 37° C. for 24 hours. After 24 hours, the bacterial cultures were centrifuged at 1800 g for 10 minutes to obtain bacterial pellets. The pellets were washed twice with 1x PBS+Ca^2+/Mg^2+ and then resuspended in 1 mL of PBS+Ca^2+/Mg^2+ to obtain the bacterial stock solutions. The optical density of the suspension was measure at 600 nm and bacterial cell densities (CFU/mL) were calculated using previously established bacterial growth curves for each strain of bacteria. […] The final concentration of each cuvette was 300 μg/mL of genistein equivalent and 5.0×10^8 CFU/mL in a total volume of 1 mL. The cuvettes were mixed via trituration and placed on an UV-Visible spectrophotometer equipped with an eight-position cuvette holder. The percent transmittance of light at 450 nm was measured every 1 min for 240 min. […] After 240 min, the area under the curve was calculated from the generated transmittance calibration curves.

[3] = Thermal degradation of essential oils at 40° C.; format: physicochemical; details: day 7 at 40° C., diluted 1:10 in deionized water
Protocol: AgriCell-encapsulated EOs (200 mg/mL of EO loaded with 200 mg/mL of AgriCell) were diluted 1:10 in deionized water (total volume 1000 μL, 14 replicates for each EO) and the solutions were left at 40° C. for a total period of 7 days. One replicate of each EO per treatment was collected daily and tested for EO content. Results were reported as concentration of EO as function of time for each stability condition.

[4] = Auto-oxidative degradation of essential oils under UV and Vis light; format: physicochemical; details: after 7 days under UV and Vis light
Protocol: AgriCell-encapsulated EOs (200 mg/mL of EO loaded with 200 mg/mL of AgriCell) were diluted 1:10 in deionized water (total volume 1000 μL, 14 replicates for each EO) and the solutions were left under UV radiation for a total period of 7 days. One replicate of each EO per treatment was collected daily and tested for EO content by UV-Vis spectroscopy as described in Example 2. Results were reported as concentration of EO as function of time for each stability condition.

[5] = system: H. pylori; details: 2 mg/L; cited from earlier work
[6] = system: E. coli; details: cited from earlier work
[7] = system: Escherichia coli ATCC 25922; assay: Zone of inhibition test (Kirby-Bauer); format: cell-based; details: ATCC25922, read-out: growth inhibition compared to positive control (Vancomycin 30 μg/mL)
Protocol: (§1) In this example, the zone of inhibition test, also called a Kirby-Bauer Test, was conducted to measure antibiotic resistance of eugenol encapsulated into AgriCell. Approximately 1×10^8 cells from a selected bacterial strain (Escherichia coli ATCC 25922 and Pseudomonas aeruginosa ATCC 15442) were spread over an agar plate using a sterile swab, then incubated in the presence of the antimicrobial agent (adsorbed over a paper disc). If the bacterial strain is susceptible to the antimicrobial agent, then a zone of inhibition appears on the agar plate, whereas if the selected bacterial strain is resistant to the antimicrobial agent, then no zone is evident.

[8] = system: Pseudomonas aeruginosa ATCC 15442; assay: Zone of inhibition test (Kirby-Bauer); format: cell-based; details: ATCC15442, read-out: growth inhibition compared to positive control (Vancomycin 30 μg/mL)
Protocol: as §1

[9] = HEL release from AgriCell in PBS; format: physicochemical; details: PBS pH 7.3, 37° C.
Protocol: Samples were incubated at 37° C. under mild shaking. After 15, 30, 45, 60, 90, 120, 180, and 240 minutes, the tubes were given a spin-off and samples of 250 μL of the supernatant were taken. These samples were replaced by PBS (pH 7.3). The non-encapsulated HEL in PBS was determined with the Lowry protein assay and AgriCell-encapsulated HEL was determined by arithmetic differential calculation.

[10] = system: 3A9 T-cell hybridomas cocultured with mouse peritoneal macrophages; assay: IL-2 expression in 3A9 T-cell hybridomas cocultured with macrophages (ELISA); format: cell-based; details: 10 mg/mL
Protocol: Mouse peritoneal macrophages were resuspended in media and plated in 24-well cell-culture plates at a concentration of 1×10^8 cells/well. After 3 hours, the macrophages were attached and washed with DMEM media until cells other than macrophages were removed. Supplemented media (DMEM, 10% FBS, 2 mM of L-alanyl-L-glutamine, 100 U/mL of media penicillin and 100 U/mL of media streptomycin) was added and the macrophages were incubated overnight at 37° C. and 5% CO2. The 3A9 T-cell hybridomas were maintained in DMEM supplemented with 10% FBS, 50 μg of gentamycin/mL media, 2 mM of L-alanyl-L-glutamine, 10 mM of HEPES buffer, 55 μM of 2-mercaptoethanol, and 1× non-essential amino acids. For experiments, media was removed from the macrophages and rinsed once with PBS. […] The media was removed, and cells washed once with PBS. The T-cell hybridomas (concentration equals 2× the number of macrophages) in 3A9 media (without phenol red) were added to the macrophages and incubated for 24 hours. Media was removed, placed in microfuge tubes, centrifuged for 4 minutes at 15,000×g, and IL-2 was measured by an ELISA kit (555148, BD Biosciences). Data were expressed as pg of IL-2/mL media.

[11] = AI 100 mg/mL encapsulated into AgriCell (FIG. 4B)
[12] = EO 200 mg/mL encapsulated into AgriCell (FIG. 4A)

Row | Molecule | encapsulation efficacy [1, 11] | encapsulation efficacy [1, 12] | percentages of degradation [3] | autoxidatively degraded (degradation rates) [4] | existence (remained/not damaged) [4] | other results
1 | O=c1c(-c2ccc(O)cc2)coc2cc(O)cc(O)c12 [genistein] | 83.6% | – | – | – | – | lag phase of agglutination curve [2]: about 25 minutes
2 | Cc1ccc(C(C)C)c(O)c1 [thymol] | – | 91.8% | 20.9% | 55.8% | 44.2% | –
3 | CC(C)=CCC/C(C)=C/CO [geraniol] | – | – | – | – | – | growth of H. pylori in vitro [5]: inhibited the growth
4 | CC(C)=CCCC(C)=CC=O [citral] | – | – | – | – | – | concentration in growth media that reduced the concentration of E. coli [6]: more than 0.01%; concentration with bactericidal effect [6]: 0.08%
5 | C=CCc1ccc(O)c(OC)c1 [eugenol] | 91.1% | 95.5% | 17.3% | 82.7% | 17.3% | inhibition at 200 µg/mL [7]: < 80%; inhibition at 200 µg/mL [8]: < 60%
6 | HEL: hen egg-white lysozyme, model protein antigen, 14.7 kDa | – | – | – | – | – | HEL released, initial burst stage ([9]; 15 minutes): 89.2%; HEL released ([9]; 240 minutes): 100.1%; preincubation time to maximum IL-2 expression [10]: > 10 h
